Assay [1] deals with T1, hAChE (recombinant human AChE; AChE from human erythrocytes in Table 1) (Homo sapiens, UniProt P22303).
T1 construct: commercial recombinant human AChE (Sigma-Aldrich) per methods
Description: Ellman assay, […] nm. The assay is classed as biochemical.

The target in assay [2] is T2, hBChE (BChE from human plasma; serum hBChE) (Homo sapiens, UniProt P06276).
T2 construct: native, commercial from human plasma / serum (Sigma-Aldrich)
The experiment in a line: Ellman assay, […] nm. The assay is classed as biochemical. On the technique in general: DTNB colorimetry detects thiols as they appear.

T2 sequence (P06276 29-602): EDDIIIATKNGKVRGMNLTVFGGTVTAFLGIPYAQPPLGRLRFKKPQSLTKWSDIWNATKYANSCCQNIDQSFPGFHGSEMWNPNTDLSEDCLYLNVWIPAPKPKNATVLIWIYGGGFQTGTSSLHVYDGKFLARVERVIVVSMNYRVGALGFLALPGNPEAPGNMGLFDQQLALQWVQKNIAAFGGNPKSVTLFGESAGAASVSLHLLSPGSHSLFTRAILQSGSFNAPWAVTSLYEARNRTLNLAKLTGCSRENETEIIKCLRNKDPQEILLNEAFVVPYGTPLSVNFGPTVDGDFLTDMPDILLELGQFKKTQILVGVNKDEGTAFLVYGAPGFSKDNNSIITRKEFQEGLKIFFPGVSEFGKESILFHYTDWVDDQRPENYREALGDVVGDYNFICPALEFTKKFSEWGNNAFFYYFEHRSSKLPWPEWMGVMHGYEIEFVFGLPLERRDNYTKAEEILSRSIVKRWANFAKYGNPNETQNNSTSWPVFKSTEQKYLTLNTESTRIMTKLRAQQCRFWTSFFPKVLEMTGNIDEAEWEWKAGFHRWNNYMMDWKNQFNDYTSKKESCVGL
T1 sequence (P22303 32-614): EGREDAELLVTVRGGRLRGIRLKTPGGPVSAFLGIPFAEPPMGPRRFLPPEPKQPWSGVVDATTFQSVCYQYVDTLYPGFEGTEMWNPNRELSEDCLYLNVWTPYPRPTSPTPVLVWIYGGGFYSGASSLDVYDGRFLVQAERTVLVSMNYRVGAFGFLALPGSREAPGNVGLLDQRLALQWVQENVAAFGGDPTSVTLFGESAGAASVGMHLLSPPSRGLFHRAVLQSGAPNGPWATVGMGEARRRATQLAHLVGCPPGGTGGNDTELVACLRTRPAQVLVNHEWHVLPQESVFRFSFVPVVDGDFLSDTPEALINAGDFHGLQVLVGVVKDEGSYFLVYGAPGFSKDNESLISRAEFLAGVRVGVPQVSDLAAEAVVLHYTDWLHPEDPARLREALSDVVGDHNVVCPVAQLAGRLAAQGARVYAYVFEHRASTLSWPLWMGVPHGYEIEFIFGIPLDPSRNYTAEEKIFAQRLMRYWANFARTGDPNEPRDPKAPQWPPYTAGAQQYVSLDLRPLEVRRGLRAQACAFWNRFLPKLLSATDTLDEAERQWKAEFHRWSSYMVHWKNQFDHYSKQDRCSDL

`Cc1cc(=O)n(CCCCCN=Cc2ccccc2C#N)c(=O)n1CCCCCN=Cc1ccccc1C#N` [compound 13, 1,3-bis[5-(o-Nitrilebenzyl)aldiminopentyl]-6-methyluracil]: the IC50 – broadly, the point on the concentration scale where inhibition reaches its midpoint – in assay [1] amounted to 2320 ± 170 nM; in assay [2], 2160 ± 150 nM.

Regarding `CCN(CCCCn1c(C)cc(=O)n(CCCCN(CC)Cc2ccccc2C#N)c1=O)Cc1ccccc1C#N` [2a, 1,3-bis[4-(o-Nitrilebenzylethylamino)butyl]-6-methyluracil], the values for the IC50 in assay [1] and in assay [2] were 7 ± 0.5 nM and 65000 nM, respectively.

Consider `Cc1cc(=O)n(CCCCCNCc2ccccc2C#N)c(=O)n1CCCCCNCc1ccccc1C#N` [compound 3, 1,3-bis[5-(o-Nitrilebenzylamino)pentyl]-6-methyluracil], for which the IC50 in assay [1] is 480 ± 30 nM; in assay [2] it was 1800 ± 170 nM.

As for `CCN(CCCCn1c(=O)c2ccccc2n(CCCCN(CC)Cc2ccccc2C#N)c1=O)Cc1ccccc1C#N` [4a, 1,3-bis[4-(o-Nitrilebenzylethylamino)butyl]-quinazoline-2,4-dione], the figures for the IC50 in assay [1] and in assay [2] were 5520 ± 400 nM and 2620 ± 200 nM, respectively.

The values are drawn from PMC7571187, “Novel Acetylcholinesterase Inhibitors Based on Uracil Moiety for Possible Treatment of Alzheimer Disease” (Molecules, 2020).
